In paper doi:10.1101/2024.08.19.608619, “Discovery of potent SARS-CoV-2 nsp3 macrodomain inhibitors uncovers lack of translation to cellular antiviral response” (bioRxiv, 2024):
Converted amounts (≈) assume the structure as drawn.

What was measured:
[1] = Permeability Papp (AB) MDR1/MDCKII; details: In vitro MDR1-MDCKII permeability; for papp_a_to_b_mean: A to B; for perc_recovery_a_to_b_mean: recovery A to B
[2] = Hepatic microsomal stability, HLM; assay type: in vitro ADME, human; details: In vitro human liver microsomal stability; for perc_remaining_no_cofactor: no cofactor
LogD = details: pH 7.4; In vitro LogD
[3] = Hepatic microsomal stability, MLM; assay type: in vitro ADME
[4] = In vitro kinetic solubility; details: In vitro kinetic solubility, ph 7.4
[5] = In vitro mouse liver microsomal stability
[6] = In vitro mouse liver microsomal stability; no cofactor
[7] = In vitro mouse liver microsomal stability, no cofactor

Row | Compound | papp_a_to_b_mean ([1]; mean) [×10⁻⁶ cm/s] | perc_recovery_a_to_b_mean ([1]; mean) [%] | clint [2] [µL/min/mg] | perc_remaining [2] [%] | t_half [2] [min] | perc_remaining_no_cofactor [2] [%] | logd (LogD) | clint [3, 5] [µL/min/mg] | perc_remaining [3, 5] [%] | t_half [3, 5] [min] | perc_remaining_no_cofactor [3, 6] [%] | solubility_mean [4] [µM] | papp_a_to_b_mean ([1]; no inhibitor) [×10⁻⁶ cm/s] | perc_recovery_a_to_b_mean ([1]; no inhibitor) [%] | perc_remaining_no_cofactor [3, 7] [%]
1 | CNC(=O)c1c[nH]c2ncnc(N[C@@H](c3ccc4c(c3)OCCO4)C(C)C)c12 [ASAP-0008406] | 16.2 | 92.4 | 79.0 | 27.0 | 21.2 | 113.0 | 3.6 | 88.0 | 20.0 | 19.0 | 95.0 | 319 (≈ 122 µg/mL) |  |  | 
2 | CC(C)[C@H](Nc1ncnc2[nH]ccc12)c1ccc2c(c1)NC(=O)CO2 [ASAP-0008430] | 3.4 | 90.0 | 10.0 | 86.0 | 160.3 | 95.0 | 1.8 | 37.0 | 54.0 | 45.1 | 89.0 | 371 (≈ 125 µg/mL) |  |  | 
3 | CC(C)[C@H](Nc1ncnc2[nH]c(-c3cnn(CC(N)=O)c3)cc12)c1ccc2c(c1)OCCO2 [ASAP-0008449] |  |  | 47.0 | 43.0 | 35.4 | 102.0 | 2.9 | 16.0 | 80.0 | 103.7 |  | 280 (≈ 125 µg/mL) | 1.09 | 87.8 | 104.0
4 | CNC(=O)c1cc2c(N[C@@H](c3ccc4c(c3)NC(=O)CO4)C(C)C)ncnc2[nH]1 [ASAP-0008571] | 0.873 | 88.1 | 52.0 | 39.0 | 32.0 | 94.0 | 2.8 | 20.0 | 71.0 | 84.4 |  | 372 (≈ 147 µg/mL) |  |  | 103.0
5 | CC(C)[C@@H](Nc1ncnc2[nH]c(-c3cnn(C)c3C#N)cc12)c1ccc2c(n1)NC(=O)CO2 [ASAP-0008644] | 9.83 | 91.2 | 70.0 | 30.0 | 23.7 | 97.0 | 3.7 | 145.0 | 9.0 | 11.5 |  | 29 (≈ 12.9 µg/mL) |  |  | 92.0
6 | CC(C)[C@@H](Nc1ncnc2[nH]c(-c3cnn(CC(N)=O)c3)cc12)c1ccc2c(n1)OCCO2 [ASAP-0008646] | 2.46 | 73.0 | 14.0 | 77.0 | 120.2 | 95.0 | 2.4 | 12.0 | 83.0 | 145.2 |  | 385 (≈ 173 µg/mL) |  |  | 104.0
7 | CC(C)[C@@H](Nc1ncnc2[nH]c(-c3cnn(C)c3C#N)cc12)c1ccc2c(c1)S(=O)(=O)CCC2 [ASAP-0008651] | 1.97 | 81.6 | 490.0 | 1.0 | 3.4 | 94.0 | 3.6 | 440.0 | 0.0 | 3.8 | 96.0 | 34 (≈ 16.2 µg/mL) |  |  | 
8 | CC(C)[C@@H](Nc1ncnc2[nH]c(-c3cnn(C)c3)cc12)c1ccc2c(c1)S(=O)(=O)CCC2 [ASAP-0008678] | 1.73 | 85.6 | 141.0 | 10.0 | 11.9 | 102.0 | 3.3 | 155.0 | 7.0 | 10.8 | 102.0 | 94 (≈ 42.4 µg/mL) |  |  | 
9 | CNC(=O)c1cc2c(N[C@@H](c3ccc4c(c3)S(=O)(=O)CCC4)C(C)C)ncnc2[nH]1 [ASAP-0008685] | 0.46 | 104.0 | 77.0 | 25.0 | 21.7 | 101.0 | 2.4 | 46.0 | 47.0 | 36.5 | 100.0 | 369 (≈ 158 µg/mL) |  |  | 
10 | CNCc1cc(-c2cc3c(N[C@@H](c4ccc5c(c4)S(=O)(=O)CCC5)C(C)C)ncnc3[nH]2)co1 [ASAP-0010745] | 1.61 | 90.5 | 57.0 | 40.0 | 29.4 | 110.0 | 2.1 | 52.0 | 41.0 | 32.2 | 108.0 | 321 (≈ 154 µg/mL) |  |  | 
11 | CC(C)[C@H](Nc1ncnc2[nH]c(-c3cnn(C)c3C#N)cc12)c1ccc2c(c1)OCCO2 [ASAP-0010980] |  |  | 706.0 | 1.0 | 2.4 | 103.0 | 3.3 | 257.0 | 2.0 | 6.5 |  | 15 (≈ 6.44 µg/mL) | 5.56 | 39.3 | 113.0
12 | CC(C)[C@@H](Nc1ncnc2[nH]c(-c3cnn(C)c3C#N)cc12)c1ccc2c(c1)OCCO2 [ASAP-0011033] |  |  | 47.0 | 46.0 | 35.4 | 101.0 | 3.4 | 129.0 | 13.0 | 13.0 |  | 20 (≈ 8.59 µg/mL) | 5.11 | 31.2 | 106.0
13 | CNC(=O)c1c[nH]c2ncnc(N[C@@H](c3ccc4c(c3)S(=O)(=O)CCC4)C(C)C)c12 [ASAP-0011156] |  |  | 108.0 | 17.0 | 15.4 | 94.0 | 2.6 | 113.0 | 15.0 | 14.7 |  | 204 (≈ 87.2 µg/mL) | 0.857 | 78.7 | 108.0
14 | CC(C)[C@H](Nc1ncnc2[nH]c(C(=O)N[C@@H]3CCN(C)C3)cc12)c1ccc2c(c1)S(=O)(=O)CCC2 [ASAP-0011196] |  |  | 3.0 | 98.0 | 626.9 | 100.0 | 1.4 | 3.0 | 104.0 | 648.8 |  | 366 (≈ 182 µg/mL) | 0.707 | 103.0 | 107.0
15 | CNC(=O)c1cc2c(N[C@@H](c3ccc4c(c3)NC(=O)CO4)C(C)C)ncnc2[nH]1 [ASAP-0011219] | 1.21 | 105.0 | 175.0 | 6.0 | 9.6 | 96.0 | 2.9 | 33.0 | 57.0 | 51.2 |  | 380 (≈ 150 µg/mL) |  |  | 99.0
16 | CC(C)[C@H](Nc1ncnc2[nH]c(-c3cnn(CC(N)=O)c3)cc12)c1ccc2c(n1)OCCO2 [ASAP-0012307] |  |  | 12.0 | 85.0 | 134.5 | 90.0 | 2.3 | 5.0 | 99.0 | 359.1 |  | 377 (≈ 169 µg/mL) | 1.27 | 100.0 | 110.0
17 | CCNC(=O)c1cc2c(N[C@H](c3ccc4c(c3)S(=O)(=O)CCC4)C(C)C)ncnc2[nH]1 [ASAP-0012325] |  |  | 109.0 | 17.0 | 15.4 | 102.0 | 2.7 | 64.0 | 34.0 | 26.3 |  | 337 (≈ 149 µg/mL) | 0.717 | 88.3 | 97.0
